From patent US20240228504A1, “SUBSTITUTED TRICYCLIC AMIDES, ANALOGUES THEREOF, AND METHODS USING SAME” (Arbutus Biopharma Corporation, priority 2020, published 2024) come the findings set out here.

The term EC50 denotes the concentration giving half of the maximal effect.

The test system of the first experiment is HBV rcDNA in HepDE19 cells. In words: HepDE19 assay with bDNA quantitation of HBV rcDNA. It counts as cell-based, hepatitis B virus. The settings on record: HepDE19 assay, inhibition of rcDNA formation, bDNA quantitation; read-out: DE-19bDNA EC50.
For the molecule `CN(C(=O)c1cc2cc(F)c(C(F)F)cc2[nH]1)C1COCc2[nH]c(=O)c3cc(F)ccc3c21` (single isomer, unassigned) [Compound 217, 6-(Difluoromethyl)-5-fluoro-N-(8-fluoro-6-oxo-1,4,5,6-tetrahydro-2H-pyrano[3,4-c]isoquinolin-1-yl)-N-methyl-1H-indole-2-carboxamide], the concentration for a half-maximal effect (EC50) is 880 nM.

Take `CN(C(=O)c1cc2cc(F)c(C(F)F)cc2[nH]1)C1COCc2[nH]c(=O)c3cc(F)ccc3c21` (single isomer, unassigned) [Compound 218, 6-(Difluoromethyl)-5-fluoro-N-(8-fluoro-6-oxo-1,4,5,6-tetrahydro-2H-pyrano[3,4-c]isoquinolin-1-yl)-N-methyl-1H-indole-2-carboxamide]: the EC50 worked out at 30 nM.

As to `CN(C(=O)c1cc2cc(F)c(C(F)F)cc2[nH]1)C1CNCc2[nH]c(=O)c3cc(F)c(F)cc3c21` (single isomer, unassigned) [Compound 220, N-(8,9-Difluoro-6-oxo-1,2,3,4,5,6-hexahydrobenzo[c][1,7]naphthyridin-1-yl)-6-(difluoromethyl)-5-fluoro-N-methyl-1H-indole-2-carboxamide], the EC50 is 2450 nM.

Take `CN(C(=O)c1cc2cc(F)c(C(F)F)cc2[nH]1)C1CNCc2[nH]c(=O)c3cc(F)c(F)cc3c21` (single isomer, unassigned) [Compound 221, N-(8,9-Difluoro-6-oxo-1,2,3,4,5,6-hexahydrobenzo[c][1,7]naphthyridin-1-yl)-6-(difluoromethyl)-5-fluoro-N-methyl-1H-indole-2-carboxamide]: the concentration for a half-maximal effect (EC50) turned out to be 30 nM.

As to `CN(C(=O)c1cc2ccc(F)cn2c1)C1CNCc2[nH]c(=O)c3cc(F)c(F)cc3c21` (single isomer, unassigned) [Compound 222, N-(8,9-Difluoro-6-oxo-1,2,3,4,5,6-hexahydrobenzo[c][1,7]naphthyridin-1-yl)-6-fluoro-N-methylindolizine-2-carboxamide], the EC50 is 7070 nM.

As for `CN(C(=O)c1cc2ccc(F)cn2c1)C1CNCc2[nH]c(=O)c3cc(F)c(F)cc3c21` (single isomer, unassigned) [Compound 223, N-(8,9-Difluoro-6-oxo-1,2,3,4,5,6-hexahydrobenzo[c][1,7]naphthyridin-1-yl)-6-fluoro-N-methylindolizine-2-carboxamide], the 50% effective concentration (EC50) was determined as 30 nM.

Regarding `CN(C(=O)c1cc2c(C(F)F)cc(F)cc2[nH]1)C1COCc2[nH]c(=O)c3cc(F)ccc3c21` (single isomer, unassigned) [Compound 238, 4-(Difluoromethyl)-6-fluoro-N-(8-fluoro-6-oxo-1,4,5,6-tetrahydro-2H-pyrano[3,4-c]isoquinolin-1-yl)-N-methyl-1H-indole-2-carboxamide], the EC50 was determined as 1400 nM.

With `CN(C(=O)c1cc2c(C(F)F)cc(F)cc2[nH]1)C1COCc2[nH]c(=O)c3cc(F)ccc3c21` (single isomer, unassigned) [Compound 239, 4-(Difluoromethyl)-6-fluoro-N-(8-fluoro-6-oxo-1,4,5,6-tetrahydro-2H-pyrano[3,4-c]isoquinolin-1-yl)-N-methyl-1H-indole-2-carboxamide], the half-maximal effective concentration (EC50) is 10 nM.

For the molecule `CN(C(=O)c1cc2c(C(F)F)c(F)ccc2[nH]1)C1COCc2[nH]c(=O)c3cc(F)ccc3c21` (single isomer, unassigned) [Compound 255, 4-(Difluoromethyl)-5-fluoro-N-(8-fluoro-6-oxo-1,4,5,6-tetrahydro-2H-pyrano[3,4-c]isoquinolin-1-yl)-N-methyl-1H-indole-2-carboxamide], the 50% effective concentration (EC50) was determined as 680 nM.

With `CN(C(=O)c1cc2c(C(F)F)c(F)ccc2[nH]1)C1COCc2[nH]c(=O)c3cc(F)ccc3c21` (single isomer, unassigned) [Compound 256, 4-(Difluoromethyl)-5-fluoro-N-(8-fluoro-6-oxo-1,4,5,6-tetrahydro-2H-pyrano[3,4-c]isoquinolin-1-yl)-N-methyl-1H-indole-2-carboxamide], the EC50 stood at 10 nM.

On to `CN(C(=O)c1cc2c(C(F)F)cc(F)cc2[nH]1)C1CNCc2[nH]c(=O)c3cc(F)c(F)cc3c21` (single isomer, unassigned) [Compound 257, N-(8,9-Difluoro-6-oxo-1,2,3,4,5,6-hexahydrobenzo[c][1,7]naphthyridin-1-yl)-4-(difluoromethyl)-6-fluoro-N-methyl-1H-indole-2-carboxamide], for which the concentration giving a half-maximal response (EC50) turned out to be 2200 nM.

For the molecule `CN(C(=O)c1cc2c(C(F)F)cc(F)cc2[nH]1)C1CNCc2[nH]c(=O)c3cc(F)c(F)cc3c21` (single isomer, unassigned) [Compound 258, N-(8,9-Difluoro-6-oxo-1,2,3,4,5,6-hexahydrobenzo[c][1,7]naphthyridin-1-yl)-4-(difluoromethyl)-6-fluoro-N-methyl-1H-indole-2-carboxamide], the concentration for a half-maximal effect (EC50) was found to be 20 nM.

As to `CN(C(=O)c1cc2c(C(F)F)cc(F)cc2[nH]1)C1CNCc2[nH]c(=O)c3cc(F)ccc3c21` (single isomer, unassigned) [Compound 259, 4-(Difluoromethyl)-6-fluoro-N-(8-fluoro-6-oxo-1,2,3,4,5,6-hexahydrobenzo[c][1,7]naphthyridin-1-yl)-N-methyl-1H-indole-2-carboxamide], the 50% effective concentration (EC50) is 5100 nM.

Take `CN(C(=O)c1cc2c(C(F)F)cc(F)cc2[nH]1)C1CNCc2[nH]c(=O)c3cc(F)ccc3c21` (single isomer, unassigned) [Compound 260, 4-(Difluoromethyl)-6-fluoro-N-(8-fluoro-6-oxo-1,2,3,4,5,6-hexahydrobenzo[c][1,7]naphthyridin-1-yl)-N-methyl-1H-indole-2-carboxamide]: the 50% effective concentration (EC50) worked out at 60 nM.

Turning to `CN(C(=O)c1cc2c(C(F)F)c(F)ccc2[nH]1)C1CNCc2[nH]c(=O)c3cc(F)c(F)cc3c21` (single isomer, unassigned) [Compound 264, N-(8,9-Difluoro-6-oxo-1,2,3,4,5,6-hexahydrobenzo[c][1,7]naphthyridin-1-yl)-4-(difluoromethyl)-5-fluoro-N-methyl-1H-indole-2-carboxamide], the EC50 amounted to 8230 nM.

`CN(C(=O)c1cc2c(C(F)F)c(F)ccc2[nH]1)C1CNCc2[nH]c(=O)c3cc(F)c(F)cc3c21` (single isomer, unassigned) [Compound 265, N-(8,9-Difluoro-6-oxo-1,2,3,4,5,6-hexahydrobenzo[c][1,7]naphthyridin-1-yl)-4-(difluoromethyl)-5-fluoro-N-methyl-1H-indole-2-carboxamide]: the EC50 is 20 nM.

In the case of `CN(C(=O)c1cc2c(C(F)F)c(F)ccc2[nH]1)C1CNCc2[nH]c(=O)c3cc(F)ccc3c21` (single isomer, unassigned) [Compound 271, 4-(Difluoromethyl)-5-fluoro-N-(8-fluoro-6-oxo-1,2,3,4,5,6-hexahydrobenzo[c][1,7]naphthyridin-1-yl)-N-methyl-1H-indole-2-carboxamide], the EC50 turned out to be 6700 nM.

Turning to `CN(C(=O)c1cc2c(C(F)F)c(F)ccc2[nH]1)C1CNCc2[nH]c(=O)c3cc(F)ccc3c21` (single isomer, unassigned) [Compound 272, 4-(Difluoromethyl)-5-fluoro-N-(8-fluoro-6-oxo-1,2,3,4,5,6-hexahydrobenzo[c][1,7]naphthyridin-1-yl)-N-methyl-1H-indole-2-carboxamide], the EC50 was 70 nM.

As for `CN(C(=O)c1ccc(-c2cccc(F)c2)cc1)C1CNCc2[nH]c(=O)c3cc(F)c(F)cc3c21` (single isomer, unassigned) [Compound 301, N-(8,9-Difluoro-6-oxo-1,2,3,4,5,6-hexahydrobenzo[c][1,7]naphthyridin-1-yl)-3′-fluoro-N-methyl-[1,1′-biphenyl]-4-carboxamide], the half-maximal effective concentration (EC50) was found to be 24500 nM.

For `CN(C(=O)c1ccc(-c2cccc(F)c2)cc1)C1CNCc2[nH]c(=O)c3cc(F)c(F)cc3c21` (single isomer, unassigned) [Compound 302, N-(8,9-Difluoro-6-oxo-1,2,3,4,5,6-hexahydrobenzo[c][1,7]naphthyridin-1-yl)-3′-fluoro-N-methyl-[1,1′-biphenyl]-4-carboxamide], the concentration giving a half-maximal response (EC50) came to 1060 nM.

As to `CNc1nc2c(c3cc(F)c(F)cc13)C(N(C)C(=O)c1cc3cc(F)c(F)cc3[nH]1)COC2` (single isomer, unassigned) [Compound 333, N-(8,9-Difluoro-6-(methylamino)-1,4-dihydro-2H-pyrano[3,4-c]isoquinolin-1-yl)-5,6-difluoro-N-methyl-1H-indole-2-carboxamide], the 50% effective concentration (EC50) turned out to be 530 nM.

In the case of `CNc1nc2c(c3cc(F)c(F)cc13)C(N(C)C(=O)c1cc3cc(F)c(F)cc3[nH]1)COC2` (single isomer, unassigned) [Compound 334, N-(8,9-Difluoro-6-(methylamino)-1,4-dihydro-2H-pyrano[3,4-c]isoquinolin-1-yl)-5,6-difluoro-N-methyl-1H-indole-2-carboxamide], the concentration for a half-maximal effect (EC50) was 10 nM.

On to `CN(C(=O)c1cc2cc(F)c(F)cc2[nH]1)C1COCc2nc(NCCO)c3cc(F)c(F)cc3c21` (single isomer, unassigned) [Compound 335, N-(8,9-Difluoro-6-((2-hydroxyethyl)amino)-1,4-dihydro-2H-pyrano[3,4-c]isoquinolin-1-yl)-5,6-difluoro-N-methyl-1H-indole-2-carboxamide], for which the EC50 worked out at 440 nM.

The same experiment, now with this note: Hepatitis B virus, HepDE19, HepDE19 assay, inhibition of rcDNA formation, bDNA quantitation; read-out: DE-19bDNA EC50.
As to `CN(C(=O)c1cccc(-c2cccc(F)c2)c1)C1CNCc2[nH]c(=O)c3cc(F)c(F)cc3c21` (single isomer, unassigned) [Compound 304, N-(8,9-Difluoro-6-oxo-1,2,3,4,5,6-hexahydrobenzo[c][1,7]naphthyridin-1-yl)-3′-fluoro-N-methyl-[1,1′-biphenyl]-3-carboxamide], the concentration for a half-maximal effect (EC50) was 20000 nM.

In the case of `CNS(=O)(=O)c1cccc(C(=O)N(C)C2CNCc3[nH]c(=O)c4cc(F)c(F)cc4c32)c1` (single isomer, unassigned) [Compound 319, N-(8,9-Difluoro-6-oxo-1,2,3,4,5,6-hexahydrobenzo[c][1,7]naphthyridin-1-yl)-N-methyl-3-(N-methylsulfamoyl)benzamide], the EC50 amounted to 6800 nM.
